Measurements published in PubChem BioAssay (NCI).
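Each compound was tested at five concentrations against cells in 96-well plates for 48 hours. At the TGI there is no net growth.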

Columns and labels:
Assay in all cases: NCI tumour cell line growth inhibition, 48 h
[1] = test system: A498 renal
[2] = test system: HOP-92 NSCLC
[3] = test system: P388 leukemia
[4] = test system: 786-0 renal
[5] = test system: A549 NSCLC
[6] = test system: ACHN renal
[7] = test system: CAKI-1 renal
[8] = test system: CCRF-CEM leukemia
[9] = test system: DLD-1 colon
[10] = test system: DMS 114 small cell lung
[11] = test system: DMS 273 small cell lung
[12] = test system: EKVX NSCLC
[13] = test system: HCC-2998 colon
[14] = test system: HCT-116 colon
[15] = test system: HCT-15 colon
[16] = test system: HL-60(TB) leukemia
[17] = test system: HOP-18 NSCLC
[18] = test system: HOP-62 NSCLC
[19] = test system: HT29 colon
[20] = test system: IGROV1 ovarian
[21] = test system: K-562 leukemia
[22] = test system: KM12 colon
[23] = test system: KM20L2 colon
[24] = test system: LOX IMVI melanoma
[25] = test system: LXFL 529 NSCLC
[26] = test system: M14 melanoma
[27] = test system: M19-MEL melanoma
[28] = test system: MALME-3M melanoma
[29] = test system: MOLT-4 leukemia
[30] = test system: NCI-H226 lung
[31] = test system: NCI-H23 lung
[32] = test system: NCI-H460 lung
[33] = test system: NCI-H522 lung
[34] = test system: OVCAR-4 ovarian
[35] = test system: OVCAR-5 ovarian
[36] = test system: OVCAR-8 ovarian
[37] = test system: RPMI-8226 leukemia
[38] = test system: RXF 393 renal
[39] = test system: RXF-631 renal
[40] = test system: SF-268 CNS
[41] = test system: SF-295 CNS
[42] = test system: SF-539 CNS
[43] = test system: SK-MEL-2 melanoma
[44] = test system: SK-MEL-28 melanoma
[45] = test system: SK-MEL-5 melanoma
[46] = test system: SK-OV-3 ovarian
[47] = test system: SN12C renal
[48] = test system: SNB-19 CNS
[49] = test system: SNB-75 CNS
[50] = test system: SNB-78 CNS
[51] = test system: SR leukemia
[52] = test system: SW-620 colon
[53] = test system: TK-10 renal
[54] = test system: U251 CNS
[55] = test system: UACC-257 melanoma
[56] = test system: UACC-62 melanoma
[57] = test system: UO-31 renal
[58] = test system: XF 498 CNS

Measured: TGI

Cc1nc(=O)n2c(c1C(=O)Nc1ccc(Cl)cc1)NCC2
> 31.6 µM: [3]
> 100 µM: [1] | [2]

C1CCN(c2nc(=[N+]3CCCCC3)ss2)CC1
> 100 µM: [4] | [1] | [5] | [6] | [7] | [8] | [9] | [10] | [11] | [12] | [13] | [14] | [15] | [16] | [17] | [18] | [2] | [19] | [20] | [21] | [22] | [23] | [24] | [25] | [26] | [27] | [28] | [29] | [30] | [31] | [32] | [33] | [34] | [35] | [36] | [37] | [38] | [39] | [40] | [41] | [42] | [43] | [44] | [45] | [46] | [47] | [48] | [49] | [50] | [51] | [52] | [53] | [54] | [55] | [56] | [57] | [58]
